The target of the assay is KRAS^G12C (Homo sapiens, UniProt P01116, C118A/G12C). Nature of the assay: Coupled Nucleotide Exchange Assay. Format: biochemical. The settings on record: GDP-bound KRAS (aa 1-169) G12C/C118A; 2 h compound pre-incubation; SOS-mediated exchange, 30 min; cRAF binding (AlphaLISA). On the procedure: The KRAS^G12C coupled nucleotide exchange assay allows for the screening and profiling of KRAS^G12C antagonists/inhibitors by monitoring the binding of an effector protein (e.g., a Ras binding domain of Raf1, RBD-cRaf) to KRAS^G12C. Purified GDP-bound KRAS protein (aa 1-169), containing both G12C and C118A amino acid substitutions and an N-terminal His-tag, was pre-incubated in assay buffer (25 mM HEPES pH 7.4, 10 mM MgCl2, 0.01% Triton X-100, either with or without 0.1% BSA) with serially diluted compound for 2 h. For all subsequent steps, BSA was omitted and DTT was added to the reaction buffer at a final concentration of 1 mM. Following compound pre-incubation, purified SOS protein (aa 564-1049) and GTP (Roche 10106399001) were added to the assay wells and incubated for an additional 30 min. To determine the extent of inhibition of SOS-mediated nucleotide exchange, purified GST-tagged cRAF (aa 1-149), nickel chelate AlphaLISA acceptor beads (PerkinElmer AL108R), and AlphaScreen glutathione donor beads (PerkinElmer 6765302) were added to the assay wells and incubated for 5-30 min. The assay plates were then read on a plate reader measuring luminescence signal. Signal intensity of compound-containing wells were normalized to DMSO control, and data were analyzed using a 4-parameter logistic model to calculate IC50 values.
Sequence of KRAS^G12C (P01116 1-169 isoform P01116-2 G12C/C118A): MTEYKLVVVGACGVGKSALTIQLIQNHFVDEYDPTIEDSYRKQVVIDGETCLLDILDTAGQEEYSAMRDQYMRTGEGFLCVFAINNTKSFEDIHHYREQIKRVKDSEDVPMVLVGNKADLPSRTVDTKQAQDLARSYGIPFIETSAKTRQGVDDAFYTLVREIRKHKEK

The values that follow come from patent US20260327243A1, “SPIRO-HETEROCYCLIC INHIBITORS OF KRAS G12C MUTANT PROTEINS AND USES THEREOF” (AMGEN INC., priority 2023, published 2026).

Molecules are shown by their SMILES.

By IC50 is commonly meant the concentration at which inhibition is half-maximal. Read a low IC50 as higher potency. `C=CC(=O)N1CCN(C2CN(c3cc(N4CCC5(CC4)O[C@@H](C)C=C5Cl)nc(C(F)(F)F)c3C#N)C2)CC1` (single isomer, unassigned) [Compound 3-067-2] came in with a half-maximal inhibitory concentration (IC50) of 0.867 µM.
`C=CC(=O)N1CCN(C2CN(c3cc(N4CCC5(CC4)OC(=O)NC5(C)C)nc(C(F)(F)F)c3C#N)C2)CC1` [Compound 3-032, 4-(3-(4-acryloylpiperazin-1-yl)azetidin-1-yl)-6-(4,4-dimethyl-2-oxo-1-oxa-3,8-diazaspiro[4.5]decan-8-yl)-2-(trifluoromethyl)nicotinonitrile] registered an IC50 of 2.75 µM.
With `C=CC(=O)N1CCN([C@@H]2CN(c3cc(N4CC[C@@]5(CC4C)OCCc4ncsc45)nc(C(F)(F)F)n3)[C@@H]2C)CC1` (single isomer, unassigned) [Compound 3-091-2], the concentration for half-maximal inhibition (IC50) turned out to be 0.883 µM.
Turning to `C=CC(=O)N1CCN(C2CN(c3cc(N4CCC5(CC4)CC(C#N)CO5)nc(C(F)(F)F)c3C#N)C2)CC1` (stereo not drawn) [Compound 3-030, 8-(4-(3-(4-acryloylpiperazin-1-yl)azetidin-1-yl)-5-cyano-6-(trifluoromethyl)pyridin-2-yl)-1-oxa-8-azaspiro[4.5]decane-3-carbonitrile], the IC50 worked out at 9.59 µM.
Consider `C=CC(=O)N1CCN(C2CN(c3cc(N4CCC5(CC4)CC(F)(F)C5)nc(C(F)(F)F)c3C#N)C2)CC1` [Compound 3-037, 4-(3-(4-acryloylpiperazin-1-yl)azetidin-1-yl)-6-(2,2-difluoro-7-azaspiro[3.5]nonan-7-yl)-2-(trifluoromethyl)nicotinonitrile], for which the IC50 amounted to 3.3 µM.
Compound `C=CC(=O)N1CCN(C2CN(c3cc(N4C5CCC4CC4(CCCO4)C5)nc(C(F)F)c3C)C2)CC1` (stereo not drawn) [Compound 3-071, 1-(4-(1-(2-(difluoromethyl)-6-(dihydro-3′H-8-azaspiro[bicyclo[3.2.1]octane-3,2′-furan]-8-yl)-3-methylpyridin-4-yl)azetidin-3-yl)piperazin-1-yl)prop-2-en-1-one] returned an IC50 of 2.99 µM.
Turning to `C=CC(=O)N1CCN(C2CN(c3cc(N4CCC5(CC4)CC5(F)F)nc(C(F)(F)F)c3C#N)C2)CC1` [Compound 3-036, 4-(3-(4-acryloylpiperazin-1-yl)azetidin-1-yl)-6-(1,1-difluoro-6-azaspiro[2.5]octan-6-yl)-2-(trifluoromethyl)nicotinonitrile], the half-inhibitory concentration (IC50) turned out to be 6.7 µM.
Consider `C=CC(=O)N1CCN(C2CN(c3cc(N4CCC5(CC4)OCCc4ncsc45)nc(C(F)F)c3C)C2)CC1` [Compound 3-069, 1-(4-(1-(2-(Difluoromethyl)-6-(6′,7′-dihydrospiro[piperidine-4,4′-pyrano[4,3-d]thiazol]-1-yl)-3-methylpyridin-4-yl)azetidin-3-yl)piperazin-1-yl) prop-2-en-1-one], for which the IC50 was determined as 0.83 µM.
Regarding `C=CC(=O)N1CCN(C2(C)CN(c3cc(N4CCC5(CC4)OCc4ccccc45)nc(C(F)(F)F)n3)C2)CC1` [Compound 3-027, 1-(4-(1-(6-(3H-spiro[isobenzofuran-1.4′-piperidin]-1′-yl)-2-(trifluoromethyl)pyrimidin-4-yl)-3-methylazetidin-3-yl)piperazin-1-yl)prop-2-en-1-one], the IC50 was 6.15 µM.
For `C=CC(=O)N1CCN(C2CN(c3cc(N4CCC5(CC4)OCCc4ccsc45)nc(C(F)(F)F)n3)C2)CC1` [Compound 3-064, 1-(4-(1-(6-(4′,5′-dihydrospiro[piperidine-4,7′-thieno[2,3-c]pyran]-1-yl)-2-(trifluoromethyl)pyrimidin-4-yl)azetidin-3-yl)piperazin-1-yl)prop-2-en-1-one] the value was 5.7 µM; for `C=CC(=O)N1CCN([C@@H]2CN(c3cc(N4CCC5(CC4)OCC=C5C)nc(C(F)F)n3)[C@@H]2C)CC1` [Compound 3-050, 1-(4-((2R,3R)-1-(2-(Difluoromethyl)-6-(4-methyl1-oxa-8-azaspiro[4.5]dec3-en-8-yl)pyrimidin-4-yl)-2-methylazetidin-3-yl)piperazin-1-yl)prop2-en-1-one], 0.825 µM.
For `C=CC(=O)N1CCN(C2CN(c3cc(N4CCC5(CCc6ccccc65)CC4)nc(C(F)(F)F)n3)C2)CC1` [Compound 3-063, 1-(4-(1-(6-(2,3-Dihydrospiro[indene-1,4′-piperidin]-1′-yl)-2-(trifluoromethyl)pyrimidin-4-yl)azetidin-3-yl)piperazin-1-yl) prop-2-en-1-one] the value was 8.24 µM.
For `C=CC(=O)N1CCN(C2CN(c3cc(N4CCC5(CC4)CC(F)(F)CO5)nc(C(F)(F)F)c3C#N)C2)CC1` [Compound 3-044, 4-(3-(4-acryloylpiperazin-1-yl)azetidin-1-yl)-6-(3,3-difluoro-1-oxa-8-azaspiro[4.5]decan-8-yl)-2-(trifluoromethyl)nicotinonitrile], the concentration for half-maximal inhibition (IC50) is 3.32 µM.
`C=CC(=O)N1CCN(C2CN(c3cc(N4CCC5(C=C[C@@H](C)O5)CC4)nc(C(F)(F)F)c3C#N)C2)CC1` [Compound 3-068-1, (R)-4-(3-(4-acryloylpiperazin-1-yl)azetidin-1-yl)-6-(2-methyl-1-oxa-8-azaspiro[4.5]dec-3-en-8-yl)-2-(trifluoromethyl)nicotinonitrile] showed a half-maximal inhibitory concentration (IC50) of 1.28 µM.
Compound `C=CC(=O)N1CCN(C2CN(c3cc(N4CCC5(CCCO5)[C@@H](CO)C4)nc(C(F)(F)F)c3C#N)C2)CC1` (stereo partly drawn) [Compound 3-062-2, 4-(3-(4-acryloylpiperazin-1-yl)azetidin-1-yl)-6-((6R)-6-(hydroxymethyl)-1-oxa-8-azaspiro[4.5]decan-8-yl)-2-(trifluoromethyl)nicotinonitrile] yielded an IC50 of 6.2 µM.
The figure for `C=CC(=O)N1CCN(C2CN(c3cc(N4CCC5(CC4)OCc4cnn(C)c45)nc(C(F)(F)F)n3)C2)CC1` [Compound 3-047, 1-(4-(1-(6-(1-methyl-1,4-dihydrospiro[furo[3,4-c]pyrazole-6,4′-piperidin]-1′-yl)-2-(trifluoromethyl)pyrimidin-4-yl)azetidin-3-yl)piperazin-1-yl)prop-2-en-1-one] is 2.69 µM.
As for `C=CC(=O)N1CCN(C2CN(c3cc(N4CCC5(CC4)CC(C)(C)CO5)nc(C(F)(F)F)c3C#N)C2)CC1` [Compound 3-045, 4-(3-(4-acryloylpiperazin-1-yl)azetidin-1-yl)-6-(3,3-dimethyl-1-oxa-8-azaspiro[4.5]decan-8-yl)-2-(trifluoromethyl)nicotinonitrile], the IC50 was 6.35 µM.
The compound `C=CC(=O)N1CCN(C2CN(c3cc(N4CCC5(CC4)OC(C)(C)c4ccccc45)nc(C(F)(F)F)c3C#N)C2)CC1` [Compound 3-040, 4-(3-(4-acryloylpiperazin-1-yl)azetidin-1-yl)-6-(3,3-dimethyl-3H-spiro[isobenzofuran-1,4′-piperidin]-1′-yl)-2-(trifluoromethyl)nicotinonitrile] yielded an IC50 of 2.84 µM.
Turning to `C=CC(=O)N1CCN(C2CN(c3cc(N4CCC5(CC4)OC(C)C=C5Cl)nc(C(F)(F)F)c3C#N)C2)CC1` (stereo not drawn) [Compound 3-065, 4-(3-(4-Acryloylpiperazin-1-yl)azetidin-1-yl)-6-(4-chloro-2-methyl-1-oxa-8-azaspiro[4.5]dec-3-en-8-yl)-2-(trifluoromethyl)nicotinonitrile], the half-maximal inhibitory concentration (IC50) was 0.752 µM.
`C=CC(=O)N1CCN([C@@H]2CN(c3cc(N4CCC5(C=CCO5)CC4)nc(C(F)F)n3)[C@@H]2C)CC1` [Compound 3-012, 1-(4-((2R,3R)-1-(2-(difluorometh-yl)-6-(1-oxa-8-azaspiro[4.5]dec-3-en-8-yl)pyrimidin-4-yl)-2-methyl-azetidin-3-yl)piperazin-1-yl)prop-2-en-1-one] registered a half-maximal inhibitory concentration (IC50) of 2.54 µM.
The figure for `C=CC(=O)N1CCN(C2CN(c3cc(N4CCC5(CC4)OCC4CC45)nc(C(F)(F)F)c3C#N)C2)CC1` (stereo not drawn) [Compound 3-042, 4-(3-(4-acryloylpiperazin-1-yl)azetidin-1-yl)-6-(3-oxaspiro[bicyclo[3.1.0]hexane-2,4′-piperidin]-1′-yl)-2-(trifluoromethyl)nicotinonitrile] is 5.12 µM; for `C=CC(=O)N1CCN([C@@H]2CN(c3cc(N4CCC5(C[C@@H]4C)OCC=C5C)nc(C(F)(F)F)n3)[C@@H]2C)CC1` (stereo partly drawn) [Compound 3-006, 1-(4-((2R,3R)-1-(6-(4,7-dimethyl-1-oxa-8-azaspiro[4.5]dec-3-en-8-yl)-2-(trifluoromethyl)pyrimidin-4-yl)-2-methylazetidin-3-yl)piper-azin-1-yl)prop-2-en-1-one] it is 2.24 µM.
`C=CC(=O)N1CCN(C2CN(c3cc(N4CCC5(C=CC(C)O5)CC4)nc(C(F)(F)F)c3C#N)C2)CC1` (stereo not drawn) [Compound 3-066, 4-(3-(4-acryloylpiperazin-1-yl)azetidin-1-yl)-6-(2-methyl-1-oxa-8-azaspiro[4.5]dec-3-en-8-yl)-2-(trifluoromethyl)nicotinonitrile] had an IC50 of 0.55 µM.
`C=CC(=O)N1CCN(C2CN(c3cc(N4CCC5(CC4)COC5)nc(C(F)(F)F)c3C#N)C2)CC1` [Compound 3-019, 4-(3-(4-acryloylpiperazin-1-yl)-azetidin-1-yl)-6-(2-oxa-7-azaspiro [3.5]nonan-7-yl)-2-(trifluorometh-yl)nicotinonitrile] gave a 50% inhibitory concentration (IC50) of 4.4 µM.
